Each structure is given as a SMILES string.

These results are taken from paper PMC10300026, “Discovery of an OTUD3 inhibitor for the treatment of non-small cell lung cancer” (Cell Death & Disease, 2023).

This assay concerns the target T1, OTUD3 (Homo sapiens, UniProt Q5T2D3).
T1 construct: OTUD3 OTU (aa 52-209)
T1 sequence (Q5T2D3 52-209): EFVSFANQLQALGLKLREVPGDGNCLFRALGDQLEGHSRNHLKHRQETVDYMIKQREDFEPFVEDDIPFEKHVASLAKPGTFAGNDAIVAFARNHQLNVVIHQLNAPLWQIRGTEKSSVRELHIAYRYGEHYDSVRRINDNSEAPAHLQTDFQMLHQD
Put plainly: SPR (Biacore T200, CM5 chip); supported by in vitro K48/K63 di-ubiquitin cleavage inhibition. In kind it is binding. A general note: SPR reads the build-up and loss of mass on a sensor chip optically.

As for `O=C(Nc1cccc(-c2nc3ccccc3[nH]2)c1)c1ccc(S(=O)(=O)N2CCc3ccccc3C2)cc1` [compound 16, 4-[dioxo(1,2,3,4-tetrahydroisoquinolin-2-yl)-λ6-sulfanyl]-N-[3-(1H-benzo[d]imidazol-2-yl)phenyl]benzamide], the dissociation constant Kd (in general, the free concentration of one partner at which half of the binding sites on the other are occupied at equilibrium, for simple one-to-one binding) amounted to 320 nM.
